From ChEMBL document CHEMBL1914455, “A dual fluorinated and iodinated radiotracer for PET and SPECT imaging of β-amyloid plaques in the brain” (Bioorg Med Chem Lett, 2011)
One block for each molecule: values may come before it. Calls of active or inactive are those of the source. No cut-off for these calls is given here.

Key:
Bone [1] = test: Biodistribution in ddY mouse bone assessed per gram of tissue at 0.2 to 0.4 uCi, iv after 2 mins; assay type: ADME, organism-based, Bone element; details: in vivo
Blood [2] = test: Biodistribution in ddY mouse blood assessed per gram of tissue at 0.2 to 0.4 uCi, iv after 30 mins; assay type: ADME, organism-based; details: in vivo, 0.5 h
Blood [3] = test: Biodistribution in ddY mouse blood assessed per gram of tissue at 0.2 to 0.4 uCi, iv after 60 mins; assay type: ADME, organism-based; details: in vivo, 1 h
Brain [4] = test: Biodistribution in ddY mouse brain assessed per gram of tissue at 0.2 to 0.4 uCi, iv after 30 mins; assay type: ADME, organism-based; details: in vivo, 0.5 h
Brain [5] = test: Biodistribution in ddY mouse brain assessed per gram of tissue at 0.2 to 0.4 uCi, iv after 60 mins; assay type: ADME, organism-based; details: in vivo, 1 h
Brain [6] = test: Biodistribution in ddY mouse brain assessed per gram of tissue at 0.2 to 0.4 uCi, iv after 2 mins; assay type: ADME, organism-based; details: in vivo
Blood [7] = test: Biodistribution in ddY mouse blood assessed per gram of tissue at 0.2 to 0.4 uCi, iv after 2 mins; assay type: ADME, organism-based; details: in vivo
Bone [8] = test: Biodistribution in ddY mouse bone assessed per gram of tissue at 0.2 to 0.4 uCi, iv after 60 mins; assay type: ADME, organism-based, Bone element; details: in vivo, 1 h
Blood [9] = test: Biodistribution in ddY mouse blood assessed per gram of tissue at 0.2 to 0.4 uCi, iv after 10 mins; assay type: ADME, organism-based; details: in vivo
Bone [10] = test: Biodistribution in ddY mouse bone assessed per gram of tissue at 0.2 to 0.4 uCi, iv after 30 mins; assay type: ADME, organism-based, Bone element; details: in vivo, 0.5 h
Bone [11] = test: Biodistribution in ddY mouse bone assessed per gram of tissue at 0.2 to 0.4 uCi, iv after 10 mins; assay type: ADME, organism-based, Bone element; details: in vivo
Brain [12] = test: Drug elimination from ddY mouse brain assessed per gram of tissue after 60 mins; assay type: ADME, organism-based; details: in vivo, 1 h
Brain [13] = test: Biodistribution in ddY mouse brain assessed per gram of tissue at 0.2 to 0.4 uCi, iv after 10 mins; assay type: ADME, organism-based; details: in vivo
[14] = target: Amyloid-beta precursor protein (Homo sapiens) (UniProt P05067); test: Binding affinity to beta-amyloid plaque in normal human brain sections at 1.6 uCi after 1 hr by autoradiography; details: tested as the 125I-labelled form
Sequence of Amyloid-beta precursor protein (Homo sapiens) (P05067 whole entry): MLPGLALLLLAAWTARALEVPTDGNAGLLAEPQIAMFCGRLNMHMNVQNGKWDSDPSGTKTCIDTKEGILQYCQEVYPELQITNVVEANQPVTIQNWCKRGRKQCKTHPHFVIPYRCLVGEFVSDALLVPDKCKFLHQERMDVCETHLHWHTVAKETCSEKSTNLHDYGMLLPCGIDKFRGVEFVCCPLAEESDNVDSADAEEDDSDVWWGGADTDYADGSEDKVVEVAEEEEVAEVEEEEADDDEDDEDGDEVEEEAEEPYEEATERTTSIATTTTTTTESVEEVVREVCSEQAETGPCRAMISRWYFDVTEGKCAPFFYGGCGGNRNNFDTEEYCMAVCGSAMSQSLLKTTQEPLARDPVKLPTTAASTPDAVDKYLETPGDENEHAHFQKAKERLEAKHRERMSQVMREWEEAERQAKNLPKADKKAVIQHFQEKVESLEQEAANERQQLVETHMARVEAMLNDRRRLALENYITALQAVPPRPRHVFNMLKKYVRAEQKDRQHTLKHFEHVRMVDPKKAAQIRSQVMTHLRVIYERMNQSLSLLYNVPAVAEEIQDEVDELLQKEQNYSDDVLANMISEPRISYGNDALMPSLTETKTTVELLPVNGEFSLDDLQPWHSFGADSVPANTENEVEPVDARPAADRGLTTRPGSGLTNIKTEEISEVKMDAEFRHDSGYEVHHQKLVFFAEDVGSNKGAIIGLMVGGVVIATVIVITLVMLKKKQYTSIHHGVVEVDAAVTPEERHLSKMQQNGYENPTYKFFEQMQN

Mus musculus [15] = species on record: Mus musculus; test: Binding affinity to amyloid beta (1 to 42) in Tg2576 mouse brain sections by neuropathological staining method; assay type: tissue-based
[16] = Displacement of [125I]IMPY from amyloid beta (1 to 42) after 3 hrs by gamma counting
Mus musculus [17] = species on record: Mus musculus; test: Binding affinity to amyloid beta (1 to 42) in wild type mouse brain sections by neuropathological staining method; assay type: tissue-based
[18] = target: Amyloid-beta precursor protein (Homo sapiens) (UniProt P05067); test: Binding affinity to beta-amyloid plaque in brain of patient with Alzheimers disease at 1.6 uCi after 1 hr by autoradiography; assay type: tissue-based; details: tested as the 125I-labelled form
Kidney [19] = test: Biodistribution in ddY mouse kidney assessed per gram of tissue at 0.2 to 0.4 uCi, iv after 10 mins; assay type: ADME, organism-based; details: in vivo
Intestine [20] = test: Biodistribution in ddY mouse intestine assessed per gram of tissue at 0.2 to 0.4 uCi, iv after 10 mins; assay type: ADME, organism-based; details: in vivo
Liver [21] = test: Biodistribution in ddY mouse liver assessed per gram of tissue at 0.2 to 0.4 uCi, iv after 60 mins; assay type: ADME, organism-based; details: in vivo, 1 h
Stomach [22] = test: Biodistribution in ddY mouse stomach assessed per gram of tissue at 0.2 to 0.4 uCi, iv after 10 mins; assay type: ADME, organism-based; details: in vivo
Kidney [23] = test: Biodistribution in ddY mouse kidney assessed per gram of tissue at 0.2 to 0.4 uCi, iv after 30 mins; assay type: ADME, organism-based; details: in vivo, 0.5 h
Intestine [24] = test: Biodistribution in ddY mouse intestine assessed per gram of tissue at 0.2 to 0.4 uCi, iv after 2 mins; assay type: ADME, organism-based; details: in vivo
Liver [25] = test: Biodistribution in ddY mouse liver assessed per gram of tissue at 0.2 to 0.4 uCi, iv after 10 mins; assay type: ADME, organism-based; details: in vivo
Pancreas [26] = test: Biodistribution in ddY mouse pancreas assessed per gram of tissue at 0.2 to 0.4 uCi, iv after 10 mins; assay type: ADME, organism-based; details: in vivo
Liver [27] = test: Biodistribution in ddY mouse liver assessed per gram of tissue at 0.2 to 0.4 uCi, iv after 30 mins; assay type: ADME, organism-based; details: in vivo, 0.5 h
Intestine [28] = test: Biodistribution in ddY mouse intestine assessed per gram of tissue at 0.2 to 0.4 uCi, iv after 60 mins; assay type: ADME, organism-based; details: in vivo, 1 h
Spleen [29] = test: Biodistribution in ddY mouse spleen assessed per gram of tissue at 0.2 to 0.4 uCi, iv after 60 mins; assay type: ADME, organism-based; details: in vivo, 1 h
Stomach [30] = test: Biodistribution in ddY mouse stomach assessed per gram of tissue at 0.2 to 0.4 uCi, iv after 2 mins; assay type: ADME, organism-based; details: in vivo
Liver [31] = test: Biodistribution in ddY mouse liver assessed per gram of tissue at 0.2 to 0.4 uCi, iv after 2 mins; assay type: ADME, organism-based; details: in vivo
Heart [32] = test: Biodistribution in ddY mouse heart assessed per gram of tissue at 0.2 to 0.4 uCi, iv after 2 mins; assay type: ADME, organism-based; details: in vivo
Spleen [33] = test: Biodistribution in ddY mouse spleen assessed per gram of tissue at 0.2 to 0.4 uCi, iv after 30 mins; assay type: ADME, organism-based; details: in vivo, 0.5 h
Stomach [34] = test: Biodistribution in ddY mouse stomach assessed per gram of tissue at 0.2 to 0.4 uCi, iv after 60 mins; assay type: ADME, organism-based; details: in vivo, 1 h
Kidney [35] = test: Biodistribution in ddY mouse kidney assessed per gram of tissue at 0.2 to 0.4 uCi, iv after 2 mins; assay type: ADME, organism-based; details: in vivo
Stomach [36] = test: Biodistribution in ddY mouse stomach assessed per gram of tissue at 0.2 to 0.4 uCi, iv after 30 mins; assay type: ADME, organism-based; details: in vivo, 0.5 h
Intestine [37] = test: Biodistribution in ddY mouse intestine assessed per gram of tissue at 0.2 to 0.4 uCi, iv after 30 mins; assay type: ADME, organism-based; details: in vivo, 0.5 h
[38] = Octanol-water partition coefficient, log P of the compound at pH 7.4; assay type: physicochemical
Heart [39] = test: Biodistribution in ddY mouse heart assessed per gram of tissue at 0.2 to 0.4 uCi, iv after 10 mins; assay type: ADME, organism-based; details: in vivo
Pancreas [40] = test: Biodistribution in ddY mouse pancreas assessed per gram of tissue at 0.2 to 0.4 uCi, iv after 30 mins; assay type: ADME, organism-based; details: in vivo, 0.5 h
Pancreas [41] = test: Biodistribution in ddY mouse pancreas assessed per gram of tissue at 0.2 to 0.4 uCi, iv after 2 mins; assay type: ADME, organism-based; details: in vivo
Pancreas [42] = test: Biodistribution in ddY mouse pancreas assessed per gram of tissue at 0.2 to 0.4 uCi, iv after 60 mins; assay type: ADME, organism-based; details: in vivo, 1 h
Kidney [43] = test: Biodistribution in ddY mouse kidney assessed per gram of tissue at 0.2 to 0.4 uCi, iv after 60 mins; assay type: ADME, organism-based; details: in vivo, 1 h
Spleen [44] = test: Biodistribution in ddY mouse spleen assessed per gram of tissue at 0.2 to 0.4 uCi, iv after 10 mins; assay type: ADME, organism-based; details: in vivo
Spleen [45] = test: Biodistribution in ddY mouse spleen assessed per gram of tissue at 0.2 to 0.4 uCi, iv after 2 mins; assay type: ADME, organism-based; details: in vivo
Heart [46] = test: Biodistribution in ddY mouse heart assessed per gram of tissue at 0.2 to 0.4 uCi, iv after 60 mins; assay type: ADME, organism-based; details: in vivo, 1 h
Heart [47] = test: Biodistribution in ddY mouse heart assessed per gram of tissue at 0.2 to 0.4 uCi, iv after 30 mins; assay type: ADME, organism-based; details: in vivo, 0.5 h

Drug uptake (Bone [1]): 2.03 %ID
Drug uptake (Blood [2]): 2.68 %ID
Drug uptake (Blood [3]): 2.61 %ID
Drug uptake (Brain [4]): 1.77 %ID
Drug uptake (Brain [5]): 1.75 %ID
Drug uptake (Brain [6]): 3.66 %ID
Drug uptake (Blood [7]): 5.72 %ID
Drug uptake (Bone [8]): 3.42 %ID
Drug uptake (Blood [9]): 2.84 %ID
Drug uptake (Bone [10]): 3.45 %ID
Drug uptake (Bone [11]): 2.13 %ID
CL (Brain [12]): 1.75 %ID
Drug uptake (Brain [13]): 2.37 %ID
SMILES: O=C1/C(=C/c2ccc(OCC[18F])cc2)Oc2ccc(I)cc21

Activity [14]: inactive
Activity (Mus musculus [15]): Active
Activity [16]: Dose-dependent effect
Ki [16]: 6.81 nM
Activity (Mus musculus [17]): inactive
Activity [18]: Active
SMILES: O=C1/C(=C/c2ccc(OCCF)cc2)Oc2ccc(I)cc21

Drug uptake (Kidney [19]): 7.53 %ID
Drug uptake (Intestine [20]): 6.53 %ID
Drug uptake (Blood [2]): 1.94 %ID
Drug uptake (Liver [21]): 10.96 %ID
Drug uptake (Stomach [22]): 1.46 %ID
Drug uptake (Kidney [23]): 5.49 %ID
Drug uptake (Intestine [24]): 2.02 %ID
Drug uptake (Blood [3]): 1.29 %ID
Drug uptake (Liver [25]): 16.5 %ID
Drug uptake (Pancreas [26]): 1.33 %ID
Drug uptake (Brain [4]): 0.19 %ID
Drug uptake (Brain [5]): 0.19 %ID
Drug uptake (Brain [6]): 2.34 %ID
Drug uptake (Liver [27]): 12.44 %ID
Drug uptake (Intestine [28]): 15.74 %ID
Drug uptake (Spleen [29]): 2.37 %ID
Drug uptake (Stomach [30]): 0.61 %ID
Drug uptake (Liver [31]): 17.06 %ID
Drug uptake (Blood [7]): 6.7 %ID
Drug uptake (Heart [32]): 4.9 %ID
Drug uptake (Spleen [33]): 3.61 %ID
Drug uptake (Stomach [34]): 0.89 %ID
Drug uptake (Kidney [35]): 6.96 %ID
Drug uptake (Stomach [36]): 0.79 %ID
Drug uptake (Intestine [37]): 12.35 %ID
logD [38]: 2.45
Drug uptake (Heart [39]): 1.95 %ID
Drug uptake (Pancreas [40]): 0.8 %ID
Drug uptake (Pancreas [41]): 3.44 %ID
Drug uptake (Pancreas [42]): 1.35 %ID
Drug uptake (Blood [9]): 3.13 %ID
Drug uptake (Kidney [43]): 5.22 %ID
Drug uptake (Spleen [44]): 4.33 %ID
Drug uptake (Spleen [45]): 3.74 %ID
Drug uptake (Heart [46]): 1.19 %ID
Drug uptake (Heart [47]): 1.54 %ID
CL (Brain [12]): 0.19 %ID
Drug uptake (Brain [13]): 0.84 %ID
SMILES: O=C1/C(=C/c2ccc(OCCF)cc2)Oc2ccc([125I])cc21
